For assay [1], the target named is murine TREX1 (Mus musculus (Mouse), UniProt Q91XB0). Nature of the assay: TREX1 Exonuclease Assay (murine enzyme). It is filed as biochemical. Particulars: murine TREX1 1 nM, FAM/BHQ1-labeled DNA oligonucleotide. A digest of the protocol: (§1)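 Human TREX1 (aa 55-297, 0.5 nM) or murine TREX1 (aa 1-242, 1 nM) preincubated 30 min with compound (11-point, 3-fold), then 500 nM FAM/BHQ1-quenched DNA oligo added; 45 min at room temperature in pH 7.5 Tris buffer with 5 mM MgCl2, EDTA-stopped. Fluorescence (ex 485/em 535 nm) fit to four-parameter curve for IC50.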
Chain of murine TREX1 (Q91XB0 1-242): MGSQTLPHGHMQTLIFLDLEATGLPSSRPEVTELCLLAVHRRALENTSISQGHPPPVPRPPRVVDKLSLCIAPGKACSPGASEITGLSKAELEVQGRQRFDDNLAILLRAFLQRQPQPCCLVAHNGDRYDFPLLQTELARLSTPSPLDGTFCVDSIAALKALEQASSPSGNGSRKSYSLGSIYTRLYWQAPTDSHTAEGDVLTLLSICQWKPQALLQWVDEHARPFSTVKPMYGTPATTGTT

In assay [2] the test system is interferon stimulated genes (ISGs) in THP1 Dual cells. The assay is described as follows: RT-qPCR assay of interferon stimulated gene expression. It counts as cell-based, human. Particulars: substance alone, 24 hours, normalized to GAPDH, unstimulated control = 1. The source says: Example D is a cell based assay that measures the increase in the expression of interferon stimulated genes (ISG) by RT-qPCR that are induced by TREX1 inhibitors when THP1 Dual™ cells are transfected with double-stranded DNA. The double stranded DNA used to transfect cells was VACV-70 (Invivogen), a 70 base pair oligonucleotide containing viral DNA motifs (Unterholzner L. et al., 2010. IFI16 is an innate immune sensor for intracellular DNA. Nat Immunol. 11(11):997-1004). Activation of cGAS-STING pathway in THP1 Dual™ cells increases the expression of ISGs.
The RT-qPCR assay was used to assess the ability of TREX1 inhibitors to enhance the expression of interferon stimulated genes (ISGs) in cells transfected with double-stranded DNA. The double stranded DNA used to transfect cells was VACV-70 (Invivogen), a 70 base pair oligonucleotide containing viral DNA motifs (Unterholzner L. et al., 2010. IFI16 is an innate immune sensor for intracellular DNA. Nat Immunol. 11(11):997-1004). Human THP1 Dual™ cells (Invivogen), were treated with test compound in the presence or absence of 1,200 ng/mL VACV-70, or with VACV-70 alone, for 24 hours. Cells were harvested by centrifugation and washed with phosphate buffer saline. Total RNA was isolated using Qiagen RNeasy mini kit. Genomic DNA was degraded using Thermo Scientific DNase 1 kit. Total RNA was quantified using a Nanodrop spectrophotometer. Using equal amounts of RNA, cDNA was synthesized using Invitrogen Superstrand III First Strand synthesis kit. Target and reference gene expression levels were determined by RT-qPCR using TaqMan gene expression assays and a Stratagene Mx3005P QPCR system (all reagents were from TaqMan, Applied Biosystems). Data were analyzed by the Comparative CT method. GAPDH was used for normalization. Target genes that were analyzed included interferon stimulated genes (INF-β, CXCL10, IFIT1, IFIT2, IFIT3, IFI44, and IFI44L).
A general note: Real-time PCR tracks product formation cycle by cycle.

For assay [3], the target named is human TREX1 (Homo sapiens (Human), UniProt Q9NSU2). Nature of the assay: TREX1 Exonuclease Assay (human enzyme). It is filed as biochemical. The settings on record: human TREX1 0.5 nM, FAM/BHQ1-labeled DNA oligonucleotide. The method in brief:
as §1

Usually IC50 stands for the concentration that inhibits the measured activity by half. Read a high IC50 as lower potency.

Chain of human TREX1 (Q9NSU2 1-242): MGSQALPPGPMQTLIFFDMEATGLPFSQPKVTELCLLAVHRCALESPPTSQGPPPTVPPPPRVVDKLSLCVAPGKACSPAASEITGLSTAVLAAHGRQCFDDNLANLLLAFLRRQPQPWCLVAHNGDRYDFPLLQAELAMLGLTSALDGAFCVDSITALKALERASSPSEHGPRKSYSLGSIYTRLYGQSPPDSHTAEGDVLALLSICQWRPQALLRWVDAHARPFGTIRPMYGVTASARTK

On to `N[C@@H]1C[C@H]2C(=O)N([C@H](CCC(=O)O)C(=O)NCc3ccc(Cl)c(Cl)c3)CCC(CCc3ccccc3)N2C1` (stereo partly drawn) [Example 14B], for which the IC50 in assay [1] is less than 1000 nM. In addition, in assay [2], the CXCL10 expression amounted to 2, the IFI44L expression is given as 65, the IFI44 expression is 54 and the IFIT1 expression was found to be 19. In assay [2], this compound displayed an IFIT2 expression of 44, an IFIT3 expression of 25 and an IFN-β expression of 7. For the same compound, the IC50 in assay [3] was less than 1000 nM.

The values above are taken from patent publication US11306098B2, “Substituted pyrrolo[1,2-a]pyrazines and pyrrolo[1,2-a][1,4]diazepines as TREX1 inhibitors” (VENENUM BIODESIGN, LLC, priority 2019, dated 2022).
